Measurements reported in ChEMBL document CHEMBL1201862, “PubChem BioAssay data set” (2004).
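Five concentrations, 48 hours, 96-well plates. Here, GI50 denotes the concentration required for 50% inhibition of growth.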 Calls of active or inactive are those of the source. Rule as the data show it: active = GI50 up to about 1.1 µM and inactive = higher.

How the values were obtained:
Test in all cases: inhibition of tumour cell growth, NCI panel, 48 h
A549 = test system: A549
SK-MEL-28 = test system: SK-MEL-28
KM12 = test system: KM12
SK-MEL-5 = test system: SK-MEL-5
MOLT-4 = test system: MOLT-4
UACC-62 = test system: UACC-62
SNB-19 = test system: SNB-19
Malme-3M = test system: Malme-3M
UACC-257 = test system: UACC-257
SF-295 = test system: SF-295
NCI-H522 = test system: NCI-H522
OVCAR-8 = test system: OVCAR-8
HCC 2998 = test system: HCC 2998
LOX IMVI = test system: LOX IMVI
A498 = test system: A498
NCI/ADR-RES = test system: NCI/ADR-RES
OVCAR-4 = test system: OVCAR-4
SK-OV-3 = test system: SK-OV-3
CAKI-1 = test system: CAKI-1

SMILES	GI50 (A549)	GI50 (SK-MEL-28)	GI50 (KM12)	GI50 (SK-MEL-5)	GI50 (MOLT-4)	GI50 (UACC-62)	GI50 (SNB-19)	GI50 (Malme-3M)	GI50 (UACC-257)	GI50 (SF-295)	GI50 (NCI-H522)	GI50 (OVCAR-8)	GI50 (HCC 2998)	GI50 (LOX IMVI)	GI50 (A498)	GI50 (NCI/ADR-RES)	GI50 (OVCAR-4)	GI50 (SK-OV-3)	GI50 (CAKI-1)
N#CC1(C#N)NC(c2ccccc2)C(C#N)(C#N)NC1c1ccccc1 (stereo not given)	> 100 µM (inactive)	> 100 µM (inactive)	> 100 µM (inactive)	> 100 µM (inactive)	> 100 µM (inactive)	> 100 µM (inactive)	> 100 µM (inactive)	> 100 µM (inactive)	> 100 µM (inactive)	> 100 µM (inactive)	27.4 µM (inactive)	> 100 µM (inactive)	> 100 µM (inactive)	> 100 µM (inactive)	> 100 µM (inactive)	> 100 µM (inactive)	> 100 µM (inactive)	> 100 µM (inactive)	6.59 µM (inactive)
CCOP(=O)(OCC)C(NC(=O)OCC(Cl)(Cl)Cl)n1nnc(C(=O)OC)c1C(=O)OC (stereo not given)	> 100 µM (inactive)	> 100 µM (inactive)	> 100 µM (inactive)	> 100 µM (inactive)	> 100 µM (inactive)	> 100 µM (inactive)	> 100 µM (inactive)	> 100 µM (inactive)	> 100 µM (inactive)	> 100 µM (inactive)	> 100 µM (inactive)	> 100 µM (inactive)	> 100 µM (inactive)	> 100 µM (inactive)	> 100 µM (inactive)	> 100 µM (inactive)	> 100 µM (inactive)	> 100 µM (inactive)	> 100 µM (inactive)
NC(Cc1ncccn1)C(=O)O (stereo not given)	> 100 µM (inactive)	> 100 µM (inactive)	> 100 µM (inactive)	> 100 µM (inactive)	> 100 µM (inactive)	> 100 µM (inactive)	> 100 µM (inactive)	> 100 µM (inactive)	> 100 µM (inactive)	> 100 µM (inactive)	> 100 µM (inactive)	> 100 µM (inactive)	> 100 µM (inactive)	> 100 µM (inactive)	> 100 µM (inactive)	> 100 µM (inactive)	> 100 µM (inactive)	> 100 µM (inactive)	> 100 µM (inactive)
O=C(c1cccs1)N1CCN(C(=O)c2cccs2)C1=S	3.96 µM (inactive)	5.13 µM (inactive)	3.23 µM (inactive)	4.59 µM (inactive)	3.24 µM (inactive)	5.89 µM (inactive)	12.4 µM (inactive)	9.38 µM (inactive)	6.19 µM (inactive)	16.4 µM (inactive)	3.98 µM (inactive)	5.32 µM (inactive)	7.96 µM (inactive)	2.86 µM (inactive)	15.1 µM (inactive)	16.7 µM (inactive)	16.9 µM (inactive)	15.6 µM (inactive)	3.68 µM (inactive)
CN(C)CCCCN1c2ccccc2Sc2ccc(C(=O)c3ccccc3)cc21	3.47 µM (inactive)	1.95 µM (inactive)	2.02 µM (inactive)	1.82 µM (inactive)	2.21 µM (inactive)	2.37 µM (inactive)	4.06 µM (inactive)	1.72 µM (inactive)	1.94 µM (inactive)	2.15 µM (inactive)	2.91 µM (inactive)	3.33 µM (inactive)	1.83 µM (inactive)	1.8 µM (inactive)	13.8 µM (inactive)	4.39 µM (inactive)	3.23 µM (inactive)	13 µM (inactive)	2.19 µM (inactive)
C=C1C(=O)O[C@H]2C3C(=C(C)CC[C@@H]12)C(=O)[C@@H]1OC31C (stereo not given in full)	13 µM (inactive)	2.34 µM (inactive)	5.73 µM (inactive)	1.59 µM (inactive)	1.36 µM (inactive)	2.04 µM (inactive)	15.8 µM (inactive)	2.2 µM (inactive)	2.24 µM (inactive)	14 µM (inactive)	1.53 µM (inactive)	2.18 µM (inactive)	14.7 µM (inactive)	2.11 µM (inactive)	11.4 µM (inactive)	3.13 µM (inactive)	1.58 µM (inactive)	15.4 µM (inactive)	2.67 µM (inactive)
O=C(/C=C/c1ccc(OCc2ccccc2)c(OCc2ccccc2)c1)OCc1ccccc1	> 100 µM (inactive)	> 100 µM (inactive)	> 100 µM (inactive)	> 100 µM (inactive)	> 100 µM (inactive)	> 100 µM (inactive)	> 100 µM (inactive)	> 100 µM (inactive)	> 100 µM (inactive)	> 100 µM (inactive)	> 100 µM (inactive)	> 100 µM (inactive)	> 100 µM (inactive)	> 100 µM (inactive)	> 100 µM (inactive)	> 100 µM (inactive)	> 100 µM (inactive)	> 100 µM (inactive)	> 100 µM (inactive)
Cc1ccc(CC2(OCCN(C)C)CCC(C(C)(C)C)CC2)cc1 (stereo not given)	3.6 µM (inactive)	1.88 µM (inactive)	3.62 µM (inactive)	1.58 µM (inactive)	1.71 µM (inactive)	2.15 µM (inactive)	4.39 µM (inactive)	1.63 µM (inactive)	2.65 µM (inactive)	5.22 µM (inactive)	3.53 µM (inactive)	4.62 µM (inactive)	1.98 µM (inactive)	1.57 µM (inactive)	13 µM (inactive)	6.73 µM (inactive)	4.16 µM (inactive)	8.17 µM (inactive)	4.99 µM (inactive)
CCN(CC)CCNc1ccc2nnn3c4ccc(OC(C)=O)cc4c(=O)c1c23	3.14 µM (inactive)	13.4 µM (inactive)	3.15 µM (inactive)	1.88 µM (inactive)	0.284 µM (active)	11.4 µM (inactive)	> 20.3 µM (inactive)	1.11 µM (active)	9.84 µM (inactive)	4.51 µM (inactive)	0.628 µM (active)	1.15 µM (inactive)	2.53 µM (inactive)	1.47 µM (inactive)	6.76 µM (inactive)	4.45 µM (inactive)	2.36 µM (inactive)	7.35 µM (inactive)	0.378 µM (active)
Cc1cc(NC(=O)C(=O)Cc2cnc3ccccc3n2)c(S(=O)(=O)O)cc1Cl	> 100 µM (inactive)	> 100 µM (inactive)	> 100 µM (inactive)	> 100 µM (inactive)	> 100 µM (inactive)	> 100 µM (inactive)	> 100 µM (inactive)	> 100 µM (inactive)	> 100 µM (inactive)	> 100 µM (inactive)	> 100 µM (inactive)	> 100 µM (inactive)	> 100 µM (inactive)	> 100 µM (inactive)	> 100 µM (inactive)	> 100 µM (inactive)	> 100 µM (inactive)	> 100 µM (inactive)	> 100 µM (inactive)
CCN(CC)C(=S)SC(=S)N(CC)CC	28.5 µM (inactive)	36.6 µM (inactive)	28.1 µM (inactive)	5.07 µM (inactive)	26.4 µM (inactive)	20.8 µM (inactive)	49.8 µM (inactive)	23.3 µM (inactive)	41.6 µM (inactive)	39.8 µM (inactive)	0.0951 µM (active)	31.6 µM (inactive)	1.93 µM (inactive)	23.4 µM (inactive)	47.3 µM (inactive)	42.5 µM (inactive)	19.9 µM (inactive)	> 100 µM (inactive)	36.1 µM (inactive)
O=C(/C=C/c1cccc(Oc2ccccc2)c1)NCc1ccc(C(=O)NCCc2ccccc2)cc1	> 100 µM (inactive)	> 100 µM (inactive)	> 100 µM (inactive)	> 100 µM (inactive)	> 100 µM (inactive)	> 100 µM (inactive)	29.9 µM (inactive)	> 100 µM (inactive)	> 100 µM (inactive)	> 100 µM (inactive)	75 µM (inactive)	24.8 µM (inactive)	> 100 µM (inactive)	> 100 µM (inactive)	> 100 µM (inactive)	> 100 µM (inactive)	58.5 µM (inactive)	> 100 µM (inactive)	> 100 µM (inactive)
CC(=O)NCCC1CNc2ccccc21 (stereo not given)	> 100 µM (inactive)	> 100 µM (inactive)	> 100 µM (inactive)	> 100 µM (inactive)	> 100 µM (inactive)	> 100 µM (inactive)	> 100 µM (inactive)	> 100 µM (inactive)	> 100 µM (inactive)	> 100 µM (inactive)	> 100 µM (inactive)	> 100 µM (inactive)	> 100 µM (inactive)	> 100 µM (inactive)	> 100 µM (inactive)	> 100 µM (inactive)	> 100 µM (inactive)	> 100 µM (inactive)	> 100 µM (inactive)
c1cc(C[S+]2CCCC2)sc1C[S+]1CCCC1	> 100 µM (inactive)	> 10 µM (inactive)	> 100 µM (inactive)	> 100 µM (inactive)	> 100 µM (inactive)	> 100 µM (inactive)	> 100 µM (inactive)	> 100 µM (inactive)	> 100 µM (inactive)	> 100 µM (inactive)	> 100 µM (inactive)	> 100 µM (inactive)	> 100 µM (inactive)	> 100 µM (inactive)	39.2 µM (inactive)	> 100 µM (inactive)	> 100 µM (inactive)	> 100 µM (inactive)	> 100 µM (inactive)
O=c1oc2ccccc2cc1-c1ccc([N+](=O)[O-])cc1	85.9 µM (inactive)	> 100 µM (inactive)	> 100 µM (inactive)	53 µM (inactive)	> 100 µM (inactive)	89.5 µM (inactive)	14.7 µM (inactive)	> 100 µM (inactive)	> 100 µM (inactive)	83.6 µM (inactive)	56.1 µM (inactive)	54 µM (inactive)	> 100 µM (inactive)	> 100 µM (inactive)	85.5 µM (inactive)	> 100 µM (inactive)	> 100 µM (inactive)	65.3 µM (inactive)	> 100 µM (inactive)
